Results on 79 compounds are retold here after the METLIN SMRT retention time set (Domingo-Almenara et al. 2019).

This data set in a line: gradient 5% acetonitrile 3 min, to 50% in 2 min, to 85% in 15 min, held 3 min, 100 µL/min. The note with it: column: Zorbax Extend-C18 2.1 x 50 mm; eluents: water / acetonitrile, 0.1% formic acid. A digest of the protocol:
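Using water and acetonitrile that each contained 0.1% formic acid, mixtures of ~100 pure standards were separated at 100 μL/min on a Zorbax Extend-C18 column (2.1 × 50 mm, 1.8 μm). The HPLC fed a quadrupole time-of-flight mass spectrometer working in positive and negative ionization mode, with dead and dwell volumes of 40 μL and 900 μL. Data were acquired over 3 months. Retention time was read from computationally picked adduct peaks after manual inspection of each.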
On to `Cc1sc(-c2nc(C(C)C)cs2)cc1S(=O)(=O)Nc1cc(F)ccc1F`, for which the RP-LC retention time was found to be 1220 s.

In turn, `Cc1ccc(S(=O)(=O)N2CCC(c3noc(-c4ccccc4C)n3)CC2)cc1C` came in with an RP-LC retention time of 1260 s.

`CCc1ccc(NC(=O)N2CCC(N3CCN(Cc4ccc(F)cc4)C(=O)C3=O)CC2)cc1` gave an RP-LC retention time of 769 s.

Regarding `Cc1ccc(CN2CCN(C3CCN(S(=O)(=O)c4ccc(F)c(Cl)c4)CC3)C(=O)C2=O)cc1`, the RP-LC retention time was 926 s.

In the case of `Cn1nccc1-c1csc(S(=O)(=O)NC2CCCC2)c1`, the RP-LC retention time amounted to 806 s.

For `Cc1ccc(NC(=O)c2ccc3c(c2)N(CC(=O)N2CCCC2)C(=O)CO3)nc1`, the RP-LC retention time stood at 619 s.

As to `O=C(CSc1nnc(-c2ccccc2)o1)Nc1nsc(-c2ccccc2)n1`, the RP-LC retention time was 793 s.

In turn, `COc1cccc(OC)c1C(=O)N1CCCC1c1cc(C)on1` (centres undefined) registered an RP-LC retention time of 679 s.

In turn, `Cc1ccc(-c2noc(C3CCCN3C(=O)C3CC(=O)N(c4ccc(C)c(C)c4)C3)n2)cc1` (centres undefined) registered an RP-LC retention time of 1050 s.

For the compound `Cc1cccc(-c2ncccc2CNS(=O)(=O)Cc2ccc(Cl)cc2)c1`, the RP-LC retention time is 765 s.

Take `CCc1ccc(-c2noc(Cn3c(=O)n(Cc4ccccc4)c(=O)c4sccc43)n2)cc1`: the RP-LC retention time worked out at 1210 s.

In the case of `COc1ccc(OC)c(NS(=O)(=O)c2cc3n(c2)CCCNC3=O)c1`, the RP-LC retention time was found to be 639 s.

The compound `COc1ccc2c(c1)C1(CCN(S(=O)(=O)c3ccc(F)cc3)C1)C(=O)N2` (centres undefined) returned an RP-LC retention time of 820 s.

`CCc1nc2ccccc2n1CC(=O)NCC(C)C` came in with an RP-LC retention time of 597 s.

`COC(=O)C1=C(C)NC(C)=C(C(=O)OC)C1c1cccc(NC(=O)NCCCN2CCC(c3cccc(OC)c3)CC2)c1` gave an RP-LC retention time of 833 s.

Compound `CN1c2ccccc2C(=O)N2CCc3c([nH]c4ccccc34)C21` (centres undefined) registered an RP-LC retention time of 890 s.

`COc1cc2c(Oc3ccc(NC(=O)C4(C(=O)Nc5ccc(F)cc5)CC4)cc3F)ccnc2cc1OCCCN1CCOCC1` gave an RP-LC retention time of 670 s.

Turning to `O=C(NCc1cccs1)c1ccc2c(c1)CC(=O)N2Cc1ccc(F)cc1`, the RP-LC retention time turned out to be 840 s.

In turn, `COc1cccc(NS(=O)(=O)c2cc3n(c2)CCN(C(C)C)C3=O)c1` returned an RP-LC retention time of 733 s.

`COc1ccc(S(=O)(=O)NCC2Cn3cccc3C(=O)N2C)cc1` (centres undefined): the RP-LC retention time worked out at 687 s.

As for `Cc1ccc2snc(C(=O)NC(C)C)c2c1`, the RP-LC retention time was found to be 986 s.

In the case of `Cc1n[nH]c(C)c1CCC(=O)N1CCCn2ccnc2C1C1CCCC1` (centres undefined), the RP-LC retention time was 559 s.

`Cc1c(F)cccc1NC(=O)N1C[C@@H](F)C[C@H]1C(=O)N1CCc2ccccc2C1` had an RP-LC retention time of 799 s.

The compound `O=c1c2cc(Cl)ccc2oc2cc(O)cc(O)c12` came in with an RP-LC retention time of 1000 s.

In turn, `CCc1noc([C@@H]2CC(F)(F)CN2C(=O)c2cnco2)n1` showed an RP-LC retention time of 690 s.

`Cc1ccccc1CSc1ncnc2nc[nH]c12`: the RP-LC retention time was found to be 744 s.

`CCN1CCN(c2ccc3nnc(CCc4nc(-c5ccc(F)cc5)no4)n3n2)CC1` gave an RP-LC retention time of 602 s.

Compound `Clc1ccc(Cl)c(-c2ccc(CNCC3CCNCC3)o2)c1` came in with an RP-LC retention time of 574 s.

The compound `Cc1cccc(NS(=O)(=O)c2ccc3nnc(C)n3c2)c1` came in with an RP-LC retention time of 687 s.

`O=C(NCc1cccc(Cl)c1)C1CCN(C(=O)c2ncn3c2COC(c2ccccc2)C3)CC1` (centres undefined) showed an RP-LC retention time of 760 s.

`CCC(=O)Nc1ccc(CCc2nc3ccc(C(=O)NC4CCCC4)cc3[nH]2)cc1` came in with an RP-LC retention time of 625 s.

Regarding `CN(CCc1noc(-c2ccc(C(=O)N3CCOCC3)cc2)n1)C(=O)C1CCCCC1`, the RP-LC retention time was 752 s.

`CCOC(=O)c1ccc(Nc2c(-c3ccc(C)cc3)nc3cnccn23)cc1` yielded an RP-LC retention time of 918 s.

As to `CN(C)CCNC(=O)C1CCN(c2nn3cc(-c4ccc(F)cc4)nc3s2)CC1`, the RP-LC retention time was found to be 636 s.

On to `CC(C)CN1CCn2cc(S(=O)(=O)NCc3cccc(F)c3)cc2C1=O`, for which the RP-LC retention time is 813 s.

Regarding `Clc1ccc(-c2cc3c(N4CCN(C5CCCCC5)CC4)nccn3n2)cc1`, the RP-LC retention time was 806 s.

Compound `COc1ccc(Cl)cc1C(=O)Nc1ccc2c(c1)CN(C(=O)c1cccs1)CC2` showed an RP-LC retention time of 958 s.

On to `Cc1noc(C)c1CN1CCN(C(=O)c2cc(F)cc(F)c2)CC1`, for which the RP-LC retention time was found to be 563 s.

`CCOc1cc(=O)n2c(c1C(=O)NCCOC)CCCCC2` returned an RP-LC retention time of 600 s.

Consider `Cc1cc(=O)n(CC(=O)Nc2cc(F)ccc2F)c(-c2ccc(F)cc2)n1`, for which the RP-LC retention time stood at 1090 s.

The compound `O=c1ccc(-n2cccn2)nn1CCNS(=O)(=O)c1ccc(F)c(Cl)c1` showed an RP-LC retention time of 722 s.

In turn, `Cn1c(=O)c2c(ncn2CC(=O)OCc2cc(-c3cccs3)on2)n(C)c1=O` returned an RP-LC retention time of 697 s.

`CCC1Oc2ccc(S(=O)(=O)N3CCC(C(=O)Nc4ccc(C)cc4)CC3)cc2NC1=O` (centres undefined) gave an RP-LC retention time of 903 s.

For the compound `O=C(CN1C(=O)c2ccccc2Sc2ncccc21)N1CCC(N2CCCCC2)CC1`, the RP-LC retention time was determined as 583 s.

Take `CC1=C(c2ccc(C)cc2)S(=O)(=O)N=C1N1CCCN(C(=O)c2ccsc2)CC1`: the RP-LC retention time was found to be 821 s.

Compound `Cc1cccc2c(=O)n(C3CCN(S(=O)(=O)c4ccccc4)CC3)cnc12` returned an RP-LC retention time of 921 s.

As for `CC1=C(c2cccc(Cl)c2)S(=O)(=O)N=C1N1CCCN(C(=O)c2cccs2)CC1`, the RP-LC retention time came to 860 s.

The compound `COCc1noc(CC2CCOC3(CCN(Cc4ccc5c(c4)CCO5)CC3)C2)n1` (centres undefined) had an RP-LC retention time of 646 s.

`CCCC(=O)Nc1nc(-c2ccccc2)c(-c2ccccc2)s1` returned an RP-LC retention time of 1160 s.

For `CN1CCN(CCCNC(=O)c2cc3occc3c(Nc3ccc(Cl)cc3)n2)CC1`, the RP-LC retention time came out at 620 s.

On to `O=C(Nc1ccc(S(=O)(=O)Nc2nccs2)cc1)c1ccc([N+](=O)[O-])o1`, for which the RP-LC retention time amounted to 641 s.

Turning to `CCC(C)NC(=O)c1c2c(cn(-c3ccccc3)c1=O)C(=O)CC(C)(C)C2` (centres undefined), the RP-LC retention time is 942 s.

Consider `CSc1nc(NCCN(C)C)c(C#N)c(-c2ccccc2)n1`, for which the RP-LC retention time came out at 642 s.

Compound `CNC(=O)[C@@H]1C[C@H](Oc2ccccc2)CN1C(=O)c1ccoc1` registered an RP-LC retention time of 666 s.

`CN1CCCCCCN(S(=O)(=O)c2cccc3nsnc23)CCC1=O` returned an RP-LC retention time of 783 s.

`CCCOc1cc(N2CCN(S(=O)(=O)CCC)CC2)nc(C)n1` yielded an RP-LC retention time of 606 s.

Take `O=C(CSc1cc(N2CCN(c3ccccc3F)CC2)ncn1)N1CCc2ccccc21`: the RP-LC retention time is 1010 s.

The compound `O=C(Nc1ccccc1)N1C[C@H]2C[C@H](C1)[C@H]1CCCC(=O)N1C2` showed an RP-LC retention time of 622 s.

Take `Cc1ccc2c(NCc3ccccc3)c(-c3nc(C4CC4)no3)cnc2n1`: the RP-LC retention time amounted to 755 s.

Compound `O=c1ccc(N2CCCN(S(=O)(=O)c3ccccc3F)CC2)nn1-c1ccc(Cl)cc1` showed an RP-LC retention time of 925 s.

`CCCN1CCN(CCCNC(=O)C2=Cc3cc(Br)ccc3OC2)CC1` gave an RP-LC retention time of 610 s.

For `CC(C)(C)c1noc(-c2cccnc2-n2cnc(C(=O)NC3CCCCC3)c2)n1`, the RP-LC retention time was 771 s.

On to `O=C(CSc1n[nH]c(-c2ccccc2)n1)NC1CCCCC1`, for which the RP-LC retention time turned out to be 784 s.

For the compound `CSc1ccc(-c2nc3cnccn3c2Nc2ccc(C)cc2C)cc1`, the RP-LC retention time came to 644 s.

Turning to `Cc1ccc(N2C(=O)CCS2(=O)=O)cc1S(=O)(=O)N1CCN(c2ccccn2)CC1`, the RP-LC retention time stood at 635 s.

In the case of `COc1ccc(N2C(=O)C3N=NN(Cc4nc(-c5ccc(OC(C)C)cc5)no4)C3C2=O)cc1OC` (centres undefined), the RP-LC retention time was 841 s.

`COc1ccc(NS(=O)(=O)c2c(C)sc(C)c2-c2cc(C(F)(F)F)on2)cc1` registered an RP-LC retention time of 1110 s.

With `Cc1ccc(-n2c(N3CCCC(C(=O)NCc4ccc(C)o4)C3)nc3ccsc3c2=O)cc1` (centres undefined), the RP-LC retention time came out at 893 s.

The compound `COc1cc(CN2CCCCCC2c2cccs2)ccc1OCC(N)=O` (centres undefined) came in with an RP-LC retention time of 611 s.

In turn, `Cc1ccc(-n2nc(C(=O)N3CCN(c4ccccn4)CC3)c(=O)n(C)c2=O)cc1` yielded an RP-LC retention time of 625 s.

`CCc1nn2c(CNS(=O)(=O)c3cccc(C)c3)c(-c3ccccc3)nc2s1` had an RP-LC retention time of 973 s.

`Cc1nc2c(NC(=O)COc3ccccc3C)cccn2n1` came in with an RP-LC retention time of 916 s.

For the compound `Cc1nc(-c2ccccc2)nc2c1CC(=O)N2Cc1cccnc1`, the RP-LC retention time was 616 s.

In the case of `O=C(c1cc2c(s1)CCC(C(=O)N1CCN(c3ccccn3)CC1)C2)N1CCOCC1` (centres undefined), the RP-LC retention time came to 582 s.

In turn, `Cc1nc(-c2ccccc2)sc1C(=O)Nc1nc(-c2ccccc2Cl)cs1` registered an RP-LC retention time of 1310 s.

Consider `CCOc1ccccc1NC(=O)N1CCN(c2cc(C)nc(N3CCOCC3)n2)CC1`, for which the RP-LC retention time was 631 s.

Compound `Cc1cc2c(cc1S(=O)(=O)N1CCCC1C(=O)NCC(C)c1ccccc1)OCC(=O)N2` (centres undefined) showed an RP-LC retention time of 799 s.

`O=C(Nc1cccc(Cl)c1F)c1cnc(-c2ccccc2)nc1-c1ccncc1` gave an RP-LC retention time of 964 s.

With `O=C(CN1CCN(Cc2nc(-c3ccc(N4CCCCC4)nc3)no2)CC1)N1CCCC1`, the RP-LC retention time came out at 587 s.
